Source: US20090176870A1, “TGF-BETA MODULATORS AND METHODS FOR USING THE SAME” (MARSHFIELD CLINIC, priority 2005, published 2009)

What was measured:
[1] = test system: TGF-β1 activity in CHO cells carrying the plasmid pTARE-Luc; assay: pTARE luciferase reporter assay in CHO cells; type: cell-based, Chinese hamster; conditions: compound 1 μL/mL with added TGF-β1 25 ng/mL, FIG. 2B
Procedure: The pTARE luciferase reporter system was purchased from Stratagene (La Jolla, Calif.) and transfected into CHO (Chinese Hamster Ovary) cells that were purchased from ATCC (American Type Culture Collection). The plasmid pSV2neo was co-transfected with pTARE at a 40 fold lower concentration to allow for selection of colonies that received plasmid DNA using G418. Luciferase assays were performed as described using Luciferase assay system and reporter lysis buffer (Promega, Madison, Wis.). Luciferase was quantitated using a luminometer (Turner Designs, Inc., Sunnyvale, Calif.).
Compounds of Table 1 (see Example 1 above) were further tested for their ability to modulate TGF-β1 activity. Briefly, the CHO cells carrying the plasmid pTARE-Luc were treated either with each compound individually (1 μL/mL) or with added TGF-β1 (25 ng/mL). Without being bound by any theory, it is believed that testing the compound by itself in this assay allows the identification of candidate TβRII agonists while testing the chemical in the presence of TGF-β1 allows the identification of candidate TGF-β1 antagonists.

TβRIII = target: T1, TβRIII (Homo sapiens, UniProt Q03167); assay: Soluble TβRIII receptor assay with 125I labeled TGF-β1; type: binding; conditions: for Amount of ^125I labeled TGF-β1 bound to TβRIII: soluble receptor assay, control 25048
T1 construct: purchased R&D Systems
T1 sequence (Q03167 21-787 limits assumed): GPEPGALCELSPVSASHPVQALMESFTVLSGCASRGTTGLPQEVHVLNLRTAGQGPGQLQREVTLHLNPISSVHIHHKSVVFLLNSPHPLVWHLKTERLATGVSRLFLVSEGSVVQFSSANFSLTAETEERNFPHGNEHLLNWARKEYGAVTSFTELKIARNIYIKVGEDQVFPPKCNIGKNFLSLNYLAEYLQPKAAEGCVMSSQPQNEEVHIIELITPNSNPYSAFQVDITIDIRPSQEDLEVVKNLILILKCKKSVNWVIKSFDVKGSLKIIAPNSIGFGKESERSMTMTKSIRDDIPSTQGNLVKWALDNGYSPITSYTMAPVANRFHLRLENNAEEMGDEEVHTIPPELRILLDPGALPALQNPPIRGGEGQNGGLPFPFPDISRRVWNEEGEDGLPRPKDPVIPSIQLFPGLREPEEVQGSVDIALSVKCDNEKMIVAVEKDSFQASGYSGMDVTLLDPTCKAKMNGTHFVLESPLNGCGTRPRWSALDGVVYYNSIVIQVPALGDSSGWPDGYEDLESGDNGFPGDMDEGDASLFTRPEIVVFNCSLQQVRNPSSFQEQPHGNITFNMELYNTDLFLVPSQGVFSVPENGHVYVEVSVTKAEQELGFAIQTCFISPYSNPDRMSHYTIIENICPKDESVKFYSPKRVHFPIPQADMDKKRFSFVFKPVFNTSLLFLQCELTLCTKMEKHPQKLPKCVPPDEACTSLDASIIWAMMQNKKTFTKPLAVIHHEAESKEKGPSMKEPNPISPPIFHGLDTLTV
Procedure: The compound NSC 119889 and related molecules also block soluble TGF-β receptor type III (TβRIII). TβRIII binds TGF-β1 and TGF-β2 and is involved in presenting TGF-β2 to TβRII. […] TβRIII was purchased from R&D Systems (Minneapolis, Minn.). It was used at concentration of 500 ng/mL in the soluble receptor assay when Immulon 2HB plates were used and at 1 μg/mL when Immulon 1B plates were used.

[2] = test system: TGF-β1 growth inhibition of Mv1Lu cells; assay: Mv1Lu growth inhibition assay with TGF-β1; type: cell-based, mink; conditions: TGF-β1 1.5 ng/mL serially diluted to 0.095 ng/mL with compound, FIGS. 4A-4D
Procedure: Mv1Lu cells were purchased from ATCC. Growth inhibition assays for Mv1Lu and CHO cells were performed as described by Danielpour et al., in J. Cell. Physiol., 1989, 138, 79-86, using 0.2% fetal bovine serum to limit binding proteins present in serum. Mv1Lu cells were cultured in the presence of a standard TGF-β dilution curve starting at 1.5 ng/mL and serially diluted to 0.047 ng/mL or in the presence of TGF-β1 (1.5 ng/mL serially diluted to 0.095 ng/mL) with the compound. For each tested compound, one assay contained only the compound and no added TGF-β1.

^125I labeled TGF-β1 = ^125I labeled TGF-β1 (Homo sapiens, UniProt P01137); assay: 125I labeled TGF-β1 remaining in solution after incubation with compound and centrifugation; conditions: for Amount of ^125I labeled TGF-β1 in solution: 0.5 μL compound in 100 μL DMEM, 0.2% FBS overnight, 90 μL supernatant counted
Chain of ^125I labeled TGF-β1 (P01137 279-390 limits assumed): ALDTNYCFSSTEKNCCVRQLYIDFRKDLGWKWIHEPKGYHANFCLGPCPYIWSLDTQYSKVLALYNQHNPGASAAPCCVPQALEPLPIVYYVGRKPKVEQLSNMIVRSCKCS
Procedure: About 10 μL of ^125I labeled TGF-β1 (22.78 μCi/ml, 6.3 pmole/ml) was incubated with 0.5 μL of the compound in 100 μL of DMEM, 0.2% FBS overnight and then centrifuged. […] However, for compound NSC 119889 there was approximately a 40% increase in the amount of ^125I that remained in solution relative to the control. While this might be due to the compound decreasing adherence of TGF-β to the microcentrifuge tube, the lack of precipitation of the ^125I labeled TGF-β is consistent with the compounds blocking interaction of TGF-β1 with the receptor possibly by direct interaction with the receptor.

[3] = Precipitate formation / solubility; type: physicochemical; conditions: for Solubility: Table 3; for precipitate formation when diluted into water: room temperature, centrifugation at 17,000×G
[4] = test system: TGF-β1 stimulated growth of CHO cells; assay: CHO cell growth stimulation by TGF-β1; type: cell-based, Chinese hamster; conditions: 1 L (FIG. 5A) and 2 μL (FIG. 5B) of blocking compound
Procedure: (§1) Mv1Lu cells were purchased from ATCC. Growth inhibition assays for Mv1Lu and CHO cells were performed as described by Danielpour et al., in J. Cell. Physiol., 1989, 138, 79-86, using 0.2% fetal bovine serum to limit binding proteins present in serum.

CHO cells = assay: CHO cell growth, tritiated thymidine incorporation; type: cell-based, Chinese hamster; conditions: for amount of radioactivity incorporated into CHO cells: tritiated thymidine
Procedure: as §1
Chinese hamster ovarian (i.e., CHO) cells were cultured in the presence of compounds and tested for growth in the presence of tritiated thymidine. […] The reported value is the average of duplicate assays.

TβRII = target: T2, TβRII (Homo sapiens, UniProt P37173); assay: Soluble TβRII binding assay with 125I labeled TGF-β1; conditions: I-125 TGF-β1, increasing concentration of competitor, FIG. 6
T2 construct: purchased R&D Systems
T2 sequence (P37173 23-166 limits assumed, species assumed): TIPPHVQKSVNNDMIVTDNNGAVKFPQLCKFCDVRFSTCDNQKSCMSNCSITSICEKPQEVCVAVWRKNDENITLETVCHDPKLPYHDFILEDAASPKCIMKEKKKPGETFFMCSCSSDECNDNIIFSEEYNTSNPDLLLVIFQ
Procedure: Immulon 1B or 2 HB 96 well plates (Dynex Technologies, Inc., Chantilly, Va.) were coated with 100 μL/well of 500 ng/mL TβRII (R&D Systems, Minneapolis, Minn.) in phosphate buffered saline overnight at 4° C. and then blocked for 1 hr with 150 μL/well of 1% bovine serum albumin, 150 mM NaCl, 100 mM tris-HCl, pH 7.6. Following washing with PBS/0.05% Tween 20 (wash buffer, i.e., “WB”) samples were serially diluted in 1 mg/mL BSA, 0.15 M NaCl, 100 mM tris-HCl, pH 7.6, 0.05% Tween 20 containing 5 ng/mL of ^125I labeled TGF-β1 as described by Frolik et al., in J. Biol. Chem., 1984, 259, 10995-11000. Samples were incubated in the wells with TβRII for one hour at room temperature and then the plates were washed with WB. Individual wells were separated and counted.
To identify novel organic chemicals that block TGF-B activity, about 30,000 chemicals from the National Cancer Institute Developmental Therapeutics program open repository were screened. This repository contains about 140,000 chemicals. For screening, soluble TBRII was attached to an immulon 2 HB plate and then blocked with BSA. About 1 μL of each test chemical was diluted from the stock plate into 125 μL of dilution buffer containing 5 ng/mL I-125 labeled TGF-β1. In some cases, 1 μL of four chemicals each was combined to allow higher throughput. […]

Compound | Amount of ^125I labeled TGF-β1 bound to TβRIII (TβRIII) | Amount of ^125I labeled TGF-β1 in solution (^125I labeled TGF-β1; first value column) | increase in the amount of ^125I that remained in solution relative to the control (^125I labeled TGF-β1; relative to control) | Amount of ^125I labeled TGF-β1 in solution (^125I labeled TGF-β1; second value column) | Amount of ^125I labeled TGF-β1 in solution (^125I labeled TGF-β1; third value column) | Solubility [3] | precipitate formation when diluted into water [3] | binding competition vs TGF-β1 for soluble TβRII, effective concentration range (TβRII) | luciferase activity in the presence of TGF-β1 [1] | blocking of binding of ^125I labeled TGF-β1 to TβRIII (in words) (TβRIII) | blocking of growth inhibition of TGF-β1 [2] | blocking of TGF-β1 stimulation of CHO cell growth [4] | amount of radioactivity incorporated into CHO cells (CHO cells; Experiment 1, average of duplicate assays) | amount of radioactivity incorporated into CHO cells (CHO cells; Experiment 2, average of duplicate assays) | growth of CHO cells (in words) (CHO cells; two experiments)
O=C(O)c1c(Br)c(Br)c(Br)c(Br)c1C1c2ccc(O)cc2Oc2cc(O)ccc21 [NSC 119889] | 746 | 38324 | ~40% | 27159 | 29239 | no ppt | form less or no precipitate |  | marked reduction in luciferase activity | blocks binding of the ^125I labeled TGF-β1 to TβRIII | blocks growth inhibition of TGF-β1 | This stimulation was blocked | 1475 | 936 | did not substantially inhibit growth of CHO cells
O=C(O)C1CCCCC1c1c2ccc(=O)c(O)c-2oc2c(O)c(O)ccc12 (stereo not shown) [NSC 119910] |  |  |  | 24924 | 20587 | ppt | form precipitates |  |  |  |  |  |  |  | 
O=C(O)/C=C/c1c2ccc(=O)c(O)c-2oc2c(O)c(O)ccc12 [NSC 119911] | 769 | 33990 |  | 25748 | 24534 | ppt | form precipitates |  |  |  | blocks growth inhibition by TGF-β1 |  |  |  | 
CC1C2C=CC1C(c1c3ccc(=O)c(O)c-3oc3c(O)c(O)ccc13)C2C(=O)O (stereo not shown) [NSC 119913] |  |  |  | 27614 | 27960 | no ppt | form less or no precipitate |  |  |  |  |  |  |  | 

Further lines, with some results ahead:

Amount of ^125I labeled TGF-β1 bound to TβRIII (TβRIII) | Amount of ^125I labeled TGF-β1 in solution (^125I labeled TGF-β1; first value column) | increase in the amount of ^125I that remained in solution relative to the control (^125I labeled TGF-β1; relative to control) | Amount of ^125I labeled TGF-β1 in solution (^125I labeled TGF-β1; second value column) | Amount of ^125I labeled TGF-β1 in solution (^125I labeled TGF-β1; third value column) | Solubility [3] | precipitate formation when diluted into water [3] | binding competition vs TGF-β1 for soluble TβRII, effective concentration range (TβRII) | Compound | luciferase activity in the presence of TGF-β1 [1] | blocking of binding of ^125I labeled TGF-β1 to TβRIII (in words) (TβRIII) | blocking of growth inhibition of TGF-β1 [2] | blocking of TGF-β1 stimulation of CHO cell growth [4] | amount of radioactivity incorporated into CHO cells (CHO cells; Experiment 1, average of duplicate assays) | amount of radioactivity incorporated into CHO cells (CHO cells; Experiment 2, average of duplicate assays) | growth of CHO cells (in words) (CHO cells; two experiments)
726 | 33660 |  | 25308 | 20770 | ppt | form precipitates |  | O=C(O)CCc1c2ccc(=O)c(O)c-2oc2c(O)c(O)ccc12 [NSC 119915] |  |  | blocks growth inhibition of TGF-β1 |  |  |  | 
 | 34567 |  |  |  | no ppt |  |  | Oc1cc(O)c2c(c1)OC(c1ccc(O)c(O)c1)C(OC1(c3cc(O)c(O)c(O)c3)Oc3cc(O)cc(O)c3C(O)C1O)C2 (stereo not shown) [NSC 143101] |  |  |  |  |  |  | 
 | 32155 |  |  |  | no ppt |  |  | O=C(O)c1c[nH]c2cc(OCc3ccccc3)ccc2c1=O [NSC 306960] | did not inhibit TGF-β1 induction of luciferase activity |  | did not block the growth inhibition activity of TGF-β1 |  |  |  | 
 |  |  |  |  |  |  | nanomolar range | TGF-β1: non-labeled TGF-β1 protein used as competitor for TβRII in the binding competition curve |  |  |  |  |  |  | 
